Test results taken from patent US6406843B1, “Poultry virus isolates and method” (University of Arkansas, priority 1998, dated 2002).

Experiments:
Format in all cases: in vivo, chicken
[1] = test system: SPF white leghorn chickens; experiment: Antigen Capture ELISA (AC-ELISA) for IBDV in tissue homogenates of challenged birds; conditions: challenge at 28 d post hatch ± REO S-1133 and/or copper sulfate 1 lb/ton
Text: On days 4 and 11 post challenge 10 birds were necropsied from each virus challenge group as well as an additional 10 birds from the negative control. Each bird was weighed, bled, and euthanized with CO2 gas. All bursae and proventriculi were scored for the presence of gross lesions during necropsy. The bursa, spleen, and proventriculus were individually weighed and weights recorded. Tissues from each of the first five birds were cut in half, with one half being placed into 10% buffered formalin, and the other half being placed into a sterile sampling bag (Fisher Scientific, Pittsburgh, Pa.). All tissues were pooled by organ and experimental treatment group into the buffered formalin and into the sampling bags. Tissues from the remaining five birds were placed only in the sterile sampling bags. Tissues in sterile sampling bags were frozen at −20° C. for later analysis utilizing Antigen Capture ELISA (AC-ELISA), as described by Snyder et al (11).
Monoclonal antibody B-29 (University of Maryland, College Park, Md., Intervet Inc. , Millsboro, Del.) was diluted 1:10 in ice cold sterile distilled water. The solution was then acidified by the addition of 0.4 N sulfuric acid. The acidified monoclonal solution was incubated in an ice bath for one hour […]. Following incubation the acidified monoclonal antibody was diluted in 200 ml of coating buffer bringing the final dilution of monoclonal antibody to 1:10,000. ELISA optimized 96 well microtiter plates Corning #25805-96 (Corning Glass Works, Corning N.Y. 14831) were coated with 100 μl per well of a 1:10,000 dilution of monoclonal antibody B-29 (University of Maryland, College Park, Md.; Intervet, Inc., Millsboro Del.) ascitic fluid in coating buffer (Appendix). Plates were covered with individual plate sealers (Dynatech, Chantilly Va.), and incubated for 2 hours at 37° C. and then overnight at 4° C. Coated plates were washed three times with washing buffer (Appendix), with residual fluid being tapped out. Plates were allowed to air dry at room temperature and were then covered with individual plate sealers and stored at −20° C. until needed.
Infectious bursal disease virus suspect tissues were homogenized in AC-ELISA dilution buffer (Appendix) at a ratio of 1:5 or approximately 20% tissue weight to volume. Homogenization was accomplished by use of a rubber mallet, followed by the addition of the dilution buffer. One hundred fifty μl of each bursal homogenate and 300 μl of each proventricular homogenate were placed in duplicate in a 96 well round bottom plate. The concentration of the bursa tissue was adjusted by addition of 150 μl of AC-ELISA dilution buffer. There was no additional dilution to the proventriculus tissue homogenates. […]

[2] = test system: commercial broiler chickens; experiment: AC-ELISA for IBDV in tissue homogenates of challenged broilers; conditions: broilers challenged 35 d post hatch
Method: Broiler chickens were challenged or, day 35 post hatch (PH) with the USDA/STC IBDV prepared inoculum as described previously. Infectious bursal disease virus challenge was administered to each individual bird bilaterally to the eye (30 μl per eye) using an Eppendorf micropipettor (Brinkmann Inc., Westbury, N.Y.) and a sterile pipette tip (Costar Corp., Cambridge, Mass.).
(§1) On days 4 and 11 post challenge 25 birds were necropsied from each virus challenge group and an additional 10 birds from the negative control. Each bird was weighed, bled, and euthanized by CO2 asphyxiation. All birds were necropsied at which time the bursa and proventriculus were scored for the presence of gross lesions. The bursa, spleen, and proventriculus were individually weighed and results recorded. Tissues from each of the birds were cut in half, with one half being placed into 10% buffered formalin, and the other half being placed into a sterile sampling bag (Fisher Scientific, Pittsburgh, Pa.). Tissues in sterile sampling bags were frozen at −20° C. for later analysis utilizing IBDV Antigen Capture ELISA(AC-ELISA), as described by Snyder et al (138).
AC-ELISA test plates were prepared as described earlier in Section 1. Tissues were homogenized in AC-ELISA dilution buffer at a ratio of 1:5 tissue weight to volume. Homogenates were analyzed in duplicate against IBDV monoclonal B-29 AC-ELISA plates as described earlier in Section 1. Plates were read and means were calculated for the paired samples within each group and the homogenates were determined to be positive or negative based on the mean absorbance values as compared to the negative and positive controls on each plate.

[3] = test system: SPF white leghorn chickens; experiment: Microscopic (histopathological) lesions in bursa and proventriculus; conditions: for Microscopic lesions in the bursa, samples with lesions/screened / Microscopic lesions in the proventriculus, samples with lesions/screened: challenge at 28 d post hatch ± REO S-1133 and/or copper sulfate
Text: Tissues were placed in 10% buffered formalin at necropsy. Twenty-four hours later tissues were removed and manually trimmed to a thickness of ⅛ inch and placed in tissue cassettes. Tissues were dehydrated through graded alcohols, and cleared in two changes of toluene. Tissues were then infiltrated with paraffin over a 16-hour period using an autoprocessor. Following paraffin infiltration, tissues were positioned in paraffin blocks and trimmed to expose a uniform tissue face. Prepared tissue blocks were stored at −20° C. until ready to be sectioned. Sections were cut at a thickness of 5μm and floated on a water bath containing 5% gelatin before they were placed on standard 1×3 inch slides. Tissue sections were then stained using the standard method of Harris (41), for hematoxylin and eosin.
Tissues were examined microscopically for the presence of histopathological lesions induced by IBDV infection. […] Lesions in the bursa were predominantly lymphoid depletion with accompanied follicle degeneration Tissues were given a numerical index score based on the presence or absence of lesions as well as the intensity of the lesions. The scores ranged from a low of “0” which indicates no lesions or pathology observed to a high of “4” which indicates extensive tissue damage.
(§2) Tissues were placed in buffered formalin at necropsy, and processed twenty-four hours later by the method described in Section 1 (55). Tissues were examined for the presence of histopathological lesions induced by IBDV infection. Lesions in the lamina propria of the proventriculus were predominantly pleomorphism of the lymphoid cells in the mucosa along with lymphocyte depletion. Lesions in the bursa were predominantly lymphoid depletion with accompanied follicle degeneration.
(§3) Tissues were given a numerical index score based on the presence or absence as well as the intensity of the lesions present. The score ranged from a low of “0” which indicates no lesions or pathology observed to a high of “4” which indicates extensive tissue damage.
Tissues were placed in buffered formalin at necropsy, and processed twenty-four hours later by the method described in Section 1 (55). Tissues were examined for the presence of histopathological lesions induced by IBDV infection. Tissues were given a numerical index score based on the presence or absence as well as the intensity of the lesions present. The score ranged from a low of “0” which indicates no lesions or pathology observed to a high of “4” which indicates extensive tissue damage.
Tissues were placed in buffered formalin at necropsy, and processed twenty-four hours later by the method described in Section 1 (55). Tissues were examined for the presence of histopathological lesions induced by IBDV infection.

[4] = test system: commercial broiler chickens; experiment: Microscopic lesions in bursa and proventriculus of broilers; conditions: broilers challenged 35 d post hatch
Text: as §2, §3

[5] = test system: SPF white leghorn chickens; experiment: Body weight after virus challenge
Text: as §1, with “challenge 10” for “challenge 25”, “the bursa,” for “the bursa”
All data was entered into Microsoft™ Excel (Microsoft Corp., Redmond, Wash.). and were analyzed using SAS (10) (SAS Institute Inc., Cary, N.C.). Statistical significance was determined at the P<0.05 level using General Linear Models Procedure and least squared means for body weight, bursa: body weight ratios, spleen: body weight ratios, and proventriculus: body weight ratios. In addition, statistical differences were determined for means of the numerical index scores for gross lesions in the bursa and proventriculus.

[6] = test system: SPF white leghorn chickens; experiment: TUNEL staining for apoptotic cells in bursa and proventriculus; parameters: key: + indicates the presence of specific fluorescence following TUNEL staining; ++: multiple “+'s” indicate visual intensity assessment; +++: multiple “+'s” indicate visual intensity assessment; ++++: multiple “+'s” indicate visual intensity assessment; −: scored as positive when present and negative when absent; conditions: 4 days post challenge
Text: Formalin fixed tissues from experiments described in Section 3 were utilized in this staining procedure. All tissues utilized were harvested at 4 days post challenge with a 1× concentration of USDA/STC IBDV or Variant E/11084 IBDV. Tissues from specific birds were selected following an initial screening with hematoxylin and eosin stained sections. Tissue preparation and sectioning were as follows. Tissues were placed in 10% buffered formalin at necropsy. Twenty-four hours later tissues were removed, manually trimmed to a thickness of ⅛ inch and placed in tissue cassettes. Tissues were dehydrated through graded alcohols and cleared in two changes of toluene. Tissues were then infiltrated with paraffin over a 16 hour period using an autoprocessor. Following paraffin infiltration, tissues were positioned in paraffin blocks and trimmed to expose a uniform tissue face. Prepared tissue blocks were stored at −20° C. until ready to be sectioned. Sections were cut at a thickness of 5 μm and floated on a water bath containing 5% gelatin to facilitate attachment (55). […]
Tissue sections were prepared as described earlier and removed from storage at 4° C. […] Slides were stored at 4° C. overnight before viewing for the presence of fluorescence. Slides were viewed using an Olympus BX50 microscope equipped with a Olympus PM-C35X camera and Omega dye specific fluorescence filters (DAPI 385-395) (FITC 475-497). […]

SMILES: O=S(=O)([O-])[O-].[Cu+2] [NC + CS, copper sulfate]
- AC-ELISA bursal homogenates, positive/tested ([1]; day 4 post challenge): 0/10
- AC-ELISA proventricular homogenates, positive/tested ([1]; day 4 post challenge): 0/10
- AC-ELISA bursal homogenates, positive/tested ([1]; day 11 post challenge): 0/10
- AC-ELISA proventricular homogenates, positive/tested ([1]; day 11 post challenge): 0/10
- AC-ELISA bursal homogenates, positive/tested ([2]; day 4 post challenge): 0/10
- AC-ELISA proventricular homogenates, positive/tested ([2]; day 4 post challenge): 0/10
- AC-ELISA bursal homogenates, positive/tested ([2]; day 11 post challenge): 0/10
- AC-ELISA proventricular homogenates, positive/tested ([2]; day 11 post challenge): 0/10
- Microscopic lesions in the bursa, samples with lesions/screened ([3]; day 4 post challenge): 0/10
- Microscopic lesions in the proventriculus, samples with lesions/screened ([3]; day 4 post challenge): 0/10
- Microscopic lesions in the bursa, samples with lesions/screened ([3]; day 11 post challenge): 0/10
- Microscopic lesions in the proventriculus, samples with lesions/screened ([3]; day 11 post challenge): 0/10
- Lesions in the proventriculus, gross or microscopic ([3]; dietary copper levels used, without virus): no lesions in the proventriculus either gross or microscopic
- Microscopic lesions in the bursa ([4]; day 4 post challenge): 0/10
- Microscopic lesions in the proventriculus ([4]; day 4 post challenge): 0/10
- Microscopic lesions in the bursa ([4]; day 11 post challenge): 9/10
- Microscopic lesions in the proventriculus ([4]; day 11 post challenge): 0/10
- Body weight gain vs negative control ([5]; between day 4 and day 11 post challenge): significantly lower
- Day 11 body weight means vs negative control ([5]; day 11 post challenge): significantly different
- TUNEL staining, bursa [6]: −
- TUNEL staining, proventriculus [6]: −
